From US12022830B2, “Formulations of metal and ascorbic acid complexes, their obtaining and use” (INTERMAG SP. Z O.O., priority 2017, dated 2024)

Tests used:
wheat of Figura type = conditions: foliar, 32.6 g TiO(Asc)2.2H2O/ha, BBCH 22-29, 30-51, 51-73
Protocol: (§1) The experiments on the effect of the formulations according to the invention (liquid preparation obtained after dissolving the solid blend, according to the invention) were performed on winter oilseed rape, winter wheat and corn plants at the Institute of Plant Protection in Poznan at the Experimental Station in Winna Góra.

[1] = test system: winter oilseed rape of Artoga type; conditions: foliar, 32.6 g TiO(Asc)2.2H2O/ha, BBCH 21-36, 50-61, 69-73
Protocol: as §1

cabbage seed weevil = conditions: foliar, 32.6 g TiO(Asc)2.2H2O/ha, three dates
Protocol: as §1

corn of Wilga type = conditions: foliar, 32.6 g TiO(Asc)2.2H2O/ha, BBCH 12-14, 18-20, 35-39
Protocol: as §1

Alternaria brassicae = conditions: foliar, 32.6 g TiO(Asc)2.2H2O/ha, three dates
Protocol: as §1

Botrytis cinerea = conditions: foliar, 32.6 g TiO(Asc)2.2H2O/ha, three dates
Protocol: as §1

Septoria nodorum = test: Infestation of wheat spikes by Septoria nodorum; assay type: in vivo; conditions: sprayed plants, control 10%
Text: (§2) In the case of diseases attacking spikes, on the control combination, infestation by Cladosporium herbarum at 20%, by Septoria nodorum at 10% and by Gibberella avenacea at 10% were found. On sprayed plants, infestations were 1%, 1% and 0% respectively.

Gibberella avenacea = test: Infestation of wheat spikes by Gibberella avenacea; assay type: in vivo; conditions: sprayed plants, control 10%
Text: as §2

wheat = test: Cultivation of wheat, chlorophyll content and uptake of nutrients; assay type: in vivo; conditions: for Content of chlorophyll in leaves: 20th day of the experiment; for Fe content / K content / P content / Ti content / Zn content: aboveground parts, dry mass, 20th day
Protocol: Experiments for the use of titanium complex in the solid formulation TiO(Asc)2.2H2O on wheat were performed analogously to Example 14.
(§3) The content of nutrients was tested in the aboveground parts of plants, based on dry mass content.

Cladosporium herbarum = test: Infestation of wheat spikes by Cladosporium herbarum; assay type: in vivo; conditions: sprayed plants, control 20%
Text: as §2

cereal leaf beetle = test: Infestation of wheat by cereal leaf beetle; assay type: in vivo; conditions: foliar, 32.6 g TiO(Asc)2.2H2O/ha, three dates
[2] = Study of solution stability for a given complex; assay type: physicochemical
[3] = test system: Iceberg cabbage lettuce (Lactuca sativa) of Rubette type; test: Titanyl ascorbates in cultivation of iceberg lettuce, head mass, chlorophyll, flavonoids; assay type: in vivo; conditions: foliar twice, 0.00085% Ti, total 3.4 g Ti/ha
Protocol: Iceberg cabbage lettuce (Lactuca sativa) of Rubette type was cultivated in a plastic tunnel in pots with a capacity of 3 l filled with a peat substrate. […] In two applications, the total titanium dose per hectare was 3.4 g Ti/ha. The experiment was performed in a random block system, combinations were drawn in 4 blocks. […] Flavonoids are antioxidant compounds, they protect plant cell structures against reactive oxygen species formed under the influence of abiotic and biotic stress factors. These compounds are the first to be synthesised when unfavourable conditions of the growing environment occur.

butterhead lettuce = test: Cultivation of butterhead lettuce, uptake of nutrients; assay type: in vivo; conditions: aboveground parts, dry mass, 20th day, two sprays, 0.0085% Ti
Protocol: TiO(OH)(C6H7O6).1H2O was used in the amount of 9.7 g/ha (0.005%, 0.0085% Ti), (TiO(C6H7O6)2.2H2O) was used in the amount of 16.3 g/ha (0.008%, 0.0085% Ti), TiO(C6H7O6)3.3H2O was used in the amount of 22.9 g/ha (0.011%, 0.0085% Ti), TiO(C6H7O6)4.5H2O was used in the amount of 30.9 g/ha (0.015%, 0.0085% Ti) in a single spray after previously dissolving them in 200 l of water. The spraying was performed with a manual sprayer at the smallest possible drop setting. Plants were sprayed evenly from a distance of about 30 cm.
Substrate: a mixture of peat deacidified with chalk (producer: Hollas) and rinsed quartz sand with a granulation of 4-8 mm. Volume ratio of the mixture: 1:4. Agrofoska (Intermag) fertiliser in the amount of 3 kg/m^3 was added to the substrate. Pots with a volume of about 3 l were used.
Spraying was performed twice with the preparation with the same concentrations of working liquid: spray 1 on the 7th day of the experiment; spray 2 on the 14th day of the experiment.
The experiment was randomised and there were 10 repetitions for each combination (1 repetition=one pot)
as §3

fragility of stem base = test: Infestation of wheat through the fragility of stem base; assay type: in vivo; conditions: treated plants; control 48% infested plants
corn borer moth = test: Infestation of corn by corn borer moth; assay type: in vivo; conditions: foliar, 32.6 g TiO(Asc)2.2H2O/ha, three dates
[4] = test system: fusarium foot and root rot; test: Fusarium foot and root rot on wheat; assay type: in vivo; conditions: sprayed plants; control 12% of infestations
rape = test: Cultivation of rape, vegetative mass and uptake of nutrients; assay type: in vivo; conditions: for Number of plant leaves / Total wet mass of the aboveground part / Wet mass of leaves / Wet mass of stem: 20th day of the experiment; for Fe content / Mg content / Mn content / P content / Si content / Ti content / Zn content: aboveground parts, dry mass, 20th day
Protocol: Experiments for the use of titanium complex for rape were performed analogously to Example 14.
as §3

[5] = 5% solution obtained by dissolving in water

Compound: O.O.O=C1OC(C(O)CO)C([O-])=C1O.O=C1OC(C(O)CO)C([O-])=C1O.[O]=[Ti+2] (stereo not drawn) [TiO(C6H7O6)2•2H2O, titanyl ascorbate]
- Wheat yield increased compared to the control combination (wheat of Figura type): 16 % (m/m)
- Rape yield increased compared to the control combination [1]: 15%
- Siliques damaged by cabbage seed weevil fewer than in the control combination (cabbage seed weevil): 80%
- Corn yield increased compared to the control combination (corn of Wilga type): 13 % (m/m)
- Infestation of siliques by Alternaria brassicae smaller than the control combination (Alternaria brassicae): 52%
- Infestation of siliques by Botrytis cinerea smaller than the control combination (Botrytis cinerea): 77%
- infestation by Septoria nodorum (Septoria nodorum): 1%
- infestation by Gibberella avenacea (Gibberella avenacea): 0%
- Content of chlorophyll in leaves (wheat): 48.03 SPAD
- Fe content (wheat): 85.056 mg/kg
- K content (wheat): 55.27 g/kg
- P content (wheat): 10.43 g/kg
- Ti content (wheat): 1.390 mg/kg
- Zn content (wheat): 48.850 mg/kg
- infestation by Cladosporium herbarum (Cladosporium herbarum): 1%
- decrease in the infestation by cereal leaf beetle in comparison to untreated plants (cereal leaf beetle): 74%
- stable during long storage [2, 5]: up to 12 months
- temperature at which the solution remains stable [2, 5]: −5 to +40 °C
- behaviour after freezing and thawing ([2]; 5% solution, overcooled below −7° C., then raised above 0° C.): retains its original physicochemical properties
- stability of the solution among the complexes ([2]; complexes in the form of solutions): most stable
- Chlorophyll [3]: 27.4 μg/cm^2
- Dry mass [3]: 7.23 g
- Flavonoids [3]: 0.32 μg/cm^2
- Mass of head [3]: 82.8 g
- B content (butterhead lettuce): 83.31 mg/kg
- Ca content (butterhead lettuce): 17.41 g/kg
- Cu content (butterhead lettuce): 7.13 mg/kg
- Fe content (butterhead lettuce): 794.44 mg/kg
- K content (butterhead lettuce): 7.48 g/kg
- Mg content (butterhead lettuce): 6.66 g/kg
- Mn content (butterhead lettuce): 687.51 mg/kg
- S content (butterhead lettuce): 7.41 g/kg
- Ti content (butterhead lettuce): 4.27 mg/kg
- Zn content (butterhead lettuce): 154.18 mg/kg
- infestation through the fragility of stem base (fragility of stem base): 4%
- decrease in the infestation by corn borer moth in comparison to untreated plants (corn borer moth): 43%
- symptoms of fusarium foot and root rot [4]: not any symptoms

Compound: O.O=C1OC(C(O)CO)C([O-])=C1O.[OH-].[O]=[Ti+2] (stereo not drawn) [TiO(OH)(C6H7O6)•1H2O, titanyl ascorbate]
- Content of chlorophyll in leaves (wheat): 47.17 SPAD
- Fe content (wheat): 96.280 mg/kg
- K content (wheat): 57.21 g/kg
- P content (wheat): 9.86 g/kg
- Ti content (wheat): 1.444 mg/kg
- Zn content (wheat): 47.880 mg/kg
- Number of plant leaves (rape): 8.28
- Total wet mass of the aboveground part (rape): 38.3
- Wet mass of leaves (rape): 19.00 g
- Wet mass of stem (rape): 21.53 g
- Fe content (rape): 1957.19 mg/kg
- Mg content (rape): 8.859 g/kg
- Mn content (rape): 1350.53 mg/kg
- P content (rape): 8.74 g/kg
- Si content (rape): 118.21 mg/kg
- Ti content (rape): 1.55 mg/kg
- Zn content (rape): 362.63 mg/kg

Compound: titanyl ascorbate [TiO(C6H7O6)3•3H2O]
- Content of chlorophyll in leaves (wheat): 45.60 SPAD
- Fe content (wheat): 97.390 mg/kg
- K content (wheat): 57.22 g/kg
- P content (wheat): 9.47 g/kg
- Ti content (wheat): 1.311 mg/kg
- Zn content (wheat): 51.410 mg/kg
- Number of plant leaves (rape): 7.94
- Total wet mass of the aboveground part (rape): 39.61
- Wet mass of leaves (rape): 17.74 g
- Wet mass of stem (rape): 21.58 g
- Fe content (rape): 1739.07 mg/kg
- Mg content (rape): 7.86 g/kg
- Mn content (rape): 1440.47 mg/kg
- P content (rape): 11.43 g/kg
- Si content (rape): 159.40 mg/kg
- Ti content (rape): 1.07 mg/kg
- Zn content (rape): 413.68 mg/kg
- B content (butterhead lettuce): 72.35 mg/kg
- Ca content (butterhead lettuce): 17.84 g/kg
- Cu content (butterhead lettuce): 5.46 mg/kg
- Fe content (butterhead lettuce): 842.63 mg/kg
- K content (butterhead lettuce): 6.97 g/kg
- Mg content (butterhead lettuce): 6.03 g/kg
- Mn content (butterhead lettuce): 757.37 mg/kg
- Si content (butterhead lettuce): 257.62 mg/kg
- Ti content (butterhead lettuce): 2.37 mg/kg
- Zn content (butterhead lettuce): 155.38 mg/kg

Compound: titanyl ascorbate [TiO(C6H7O6)4•5H2O]
- Content of chlorophyll in leaves (wheat): 47.06 SPAD
- Fe content (wheat): 100.910 mg/kg
- K content (wheat): 53.29 g/kg
- P content (wheat): 10.09 g/kg
- Ti content (wheat): 1.150 mg/kg
- Zn content (wheat): 44.290 mg/kg
